Data on 8 compounds can be found in article doi:10.1101/2023.11.15.567208 (bioRxiv, 2024).

Test [1] in a line: Hindpaw swelling / oedema, paw volume. The class given is in vivo, mouse. The following applies: for Swelling of the hindpaw: hindpaw of DKO mice compared with WT, observation on injection; for Paw oedema (paw volume): intraplantar injection, volume normalized to uninjected paw, capsaicin WT n=9, DKO n=7, AITC n=8 each. The protocol: (§1) Mice were anesthetized using isoflurane. 200 μl of Evans Blue dye was injected into the mouse’s tail vein. 15 mins later, one hindpaw was injected with an algogen. After a further 30 mins, the volume of each paw was measured by displacement using a plethysmometer (Ugo Basile). Both paws were then cut at the ankle and placed in tubes in the oven at 55 °C for 24 hours to dry. 1 ml of formamide was then added to each paw and incubated for 4–6 days at 55 °C to extract the dye from the paw tissue. 50 μl samples of dye-infused formamide from each paw were then dispensed to a 96 well plate in duplicate, along with a range of Evans blue dilutions in formamide to generate a standard curve. The optical density of each sample was then measured using a plate-reader, and the concentration of Evans Blue per paw sample interpolated from the standard curve to generate an index of extravasation in that paw.

Test [2] is described as follows: Chemical algogens, licking behavior after intraplantar injection. It counts as in vivo, mouse. Conditions: 20 μl intraplantar, time licking in 5 min. As to the method: 0.3% capsaicin in 80% saline / 10% Tween-80 / 10% ethanol or 1% AITC in saline was injected into the plantar surface of the hind paw. The injected volume for both was 20 μl. Mice were video-taped for 5 minutes. A blinded observer scored the amount of time in seconds the mouse spent licking the injected paw in a 5-minute time period.

The nature of test [3]: Plasma extravasation, Evans blue dye. The class given is in vivo, mouse. Conditions: Evans blue optical density, normalized to uninjected paw; capsaicin WT n=9, DKO n=7; AITC n=8 each. As to the method:
as §1

The nature of test [4]: LiCl conditioned taste aversion. The class given is in vivo, mouse. Conditions: lithium chloride 200 mg/kg injection paired with 15 mM saccharin; WT n=7, DKO n=6. The protocol: Mice were single-housed and habituated for 3 days to drink from two glass bottles with stainless-steel ball-bearing spouts. Mice then received 3 days of training, where they were water-deprived for 22 hours followed by 30 mins exposure to a single water-containing bottle, then 90 mins exposure to both bottles. On the conditioning day, after 22 hours of water deprivation, mice were exposed to a single bottle containing saccharin water (15 mM) for 45 mins. Mice were then injected with lithium chloride (200 mg/kg) or PBS, and then given ordinary water for 75 mins. The animals were then water deprived for a further 22 hours. On the test day, mice were simultaneously exposed to a bottle containing water and a bottle containing saccharin for 45 mins. The volume of each solution consumed was measured by weighing the bottles before and after. To calculate the saccharin preference index of each animal, the volume of saccharin consumed was divided by the total of fluid consumed, with a value less than 0.5 indicating the development of an aversion to saccharin. […]
bioRxiv preprint doi: https://doi.org/10.1101/2023.11.15.567208; this version posted December 2, 2024. […]
Figure 2 – f igure supplement 2. Tac1::Calca DKO mice develop LiCl-induced conditioned taste aversion (A) Quantification of conditioned taste aversion (CT A) test in W T (blue ) and DKO (red) mice. […]

Test [5] can be described thus: Inflammatory pain model, Hargreaves radiant heat. The class given is in vivo, mouse. The following applies: PGE2 20 μl, 500 nM intraplantar. The protocol: The radiant heat stimulus was aimed for the centre of the plantar region of the mouse’s hind paw. The active intensity of the low stimulus was 40 intensity units, and of the high stimulus 55. The response latency was recorded for 5 trials with 10-minute breaks in between each trial.
CFA and PGE2 was purchased from Sigma. 20 μl of CFA was injected into the heel of the hind paw. PGE2 (20 μl, 500 nM) was injected into the plantar surface of the hindpaw, and behavior was assessed over the same time-frame that produces in vivo sensitization of nociceptor responses (up to 120 minutes). Inflammation-induced hypersensitivity was measured using the Hargreaves and the von Frey, as described above.

For test [6] the following is noted: 0.6% acetic acid, 10 μl per gram, intraperitoneal; writhes in 15 min starting 5 min after injection; WT n=9, DKO n=7. The protocol: Mice were habituated on a plexiglass stand for 1 hour. 0.6% of acetic acid was injected intraperitoneally at a dose of 10 μl per gram weight of the animal. Mice were videotaped for 20 minutes. The number of writhes was quantified post-hoc by a blinded observer during a 15-minute interval between 5 and 20 minutes after injection.

The nature of test [7]: Acetone evoked cold response. The class given is in vivo, mouse. Conditions: acetone droplet on paw; time licking in 60 s; WT n=12, DKO n=12. As to the method: Mice were habituated on a plexiglass floor stand for 1 hour. Mice were videotaped as acetone was applied to the plantar region of their hind paw. Acetone was applied using a custom-made applicator, consisting of a 1ml syringe and plastic well where acetone was pushed out to generate a droplet for applying to the paw. Behavior was scored post-hoc by a blinded observer and the total amount of time spent licking the paw in a 60 second time interval was recorded. The experiment was repeated for a second trial and average scores were used.

For test [8], the system named is dorsal horn network activation. The test is described as follows: Capsaicin-evoked dorsal horn Fos staining. It counts as in vivo. The following applies: capsaicin 0.3% into right hindpaw; WT n=5, DKO n=4; mean Fos puncta of 5 sections per mouse.
Test [9] addresses T1, Substance P receptor (NKR1) (Mus musculus, UniProt P30548).
T1 construct: T2A self-cleaving peptide remnant (from the polycistronic P2A-TACR1-T2A cassette) (C); expressed in transfected cells; host or cells: Flp-In T-REx HEK293 (Thermo Fisher Scientific, R78007), lentiviral transduction, hygromycin selection
In words: Co-culture of DRG neurons with Substance P-sniffer cells, capsaicin-evoked Substance P release. The class given is cell-based. The following applies: capsaicin 10 μM, n=12 wells from 2 mice; for Substance P-sniffer GCaMP response, WT DRG: co-culture with WT (control) DRG neurons.

For test [10], the target named is T2, CGRP receptor (Calcrl and Ramp1) (Mus musculus, UniProt Q9R1W5+Q9WTJ5).
T2 construct: expressed in transfected cells; host or cells: HEK293; Calcrl/Gα15/GCaMP6s by PiggyBac transposase (puromycin), Ramp1 by pSBbi-Neo-cmv-TETo2-RAMP1 IRES-mTagBFP2-NLS (geneticin); doxycycline-induced
The test is described as follows: Co-culture of DRG neurons with CGRP-sniffer cells, capsaicin-evoked CGRPα release. It counts as cell-based. The following applies: capsaicin 10 μM, n=18 wells from 3 mice.

Test [11] can be described thus: Chloroquine-induced itch, scratching bouts. The class given is in vivo, mouse. The following applies: 20 μl of 25 μM chloroquine diphosphate intradermal, nape of neck; scratching bouts in 15 min; WT n=8, DKO n=11. As to the method:
Hair from the nape of the mouse’s neck was removed 2–3 days prior to behavioral experiments using VEET hair removal cream and the area thoroughly washed and moisturizing cream applied. Mice were habituated to transparent acrylic chambers (10cm × 10cm × 13cm) 30 minutes prior to injection. Post habituation, a blinded investigator injected 20 μl of 25 μM Chloroquine diphosphate salt (Sigma-Aldrich: C6628) solution in 0.9% saline intradermally into the nape of the neck using a 31G insulin syringe. Videos were quantified by a separate blinded investigator with a scratching bout counted each time the mouse attended to the injected area with the hind paw after the paw was removed from the floor or mouth.

The conditions of test [12]: ref MacDonald et al., 2021; cited from earlier work. The text has this: Lastly, we investigated how dual peptide deletion affected the development of allodynia symptoms, where innocuous stimuli are perceived as painful, in two mouse models of neuropathic pain ([Jensen and Finnerup, 2014]).
A short description of test [13]: Oxaliplatin cold allodynia, Cold Plate. The class given is in vivo, mouse. Conditions: one day after intraplantar oxaliplatin; Cold Plate 10 °C, 5 min; WT n=9, DKO n=6. The text has this:
The plate was set to the desired temperature. A camera set up with a mirror was used for better visibility of the mouse on the hot plate. A clear cylindrical tube was placed around the hot plate to ensure the mouse cannot escape. Once the hot plate reached the set temperature, the mouse was placed on the hot plate and the top of the cylinder was covered. At the cut-off time, the mouse was taken off the hot plate and placed back in the cage. The latency to lick was scored post-hoc using the recorded videos by a blinded observer.
Chemotherapy-induced neuropathy was induced in mice by intraplantar injection of oxaliplatin into the left hind paw ([Deuis et al., 2013]; [MacDonald et al., 2021]). Oxaliplatin was made up to a dose of 80 μg in 40 μl of 5% glucose solution, due to its instability in chloride-containing saline solution. The number of nocifensive behaviors in 5 mins was assessed on the Cold Plate held at 10 °C 24 hours later.

“Also recorded” adds a separate entry of the source.

T1 sequence (P30548 whole entry): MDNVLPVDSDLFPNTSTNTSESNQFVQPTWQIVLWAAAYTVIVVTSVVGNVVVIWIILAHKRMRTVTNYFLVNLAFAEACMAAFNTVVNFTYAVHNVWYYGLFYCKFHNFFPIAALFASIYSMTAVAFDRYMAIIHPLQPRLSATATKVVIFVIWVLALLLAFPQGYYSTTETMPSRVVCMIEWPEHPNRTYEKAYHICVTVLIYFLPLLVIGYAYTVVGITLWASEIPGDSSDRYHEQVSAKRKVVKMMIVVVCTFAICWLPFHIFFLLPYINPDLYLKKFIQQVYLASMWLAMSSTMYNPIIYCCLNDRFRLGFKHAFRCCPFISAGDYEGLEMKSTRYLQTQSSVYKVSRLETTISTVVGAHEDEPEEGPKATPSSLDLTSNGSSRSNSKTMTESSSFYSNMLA
T2 sequence (Q9R1W5 23-463): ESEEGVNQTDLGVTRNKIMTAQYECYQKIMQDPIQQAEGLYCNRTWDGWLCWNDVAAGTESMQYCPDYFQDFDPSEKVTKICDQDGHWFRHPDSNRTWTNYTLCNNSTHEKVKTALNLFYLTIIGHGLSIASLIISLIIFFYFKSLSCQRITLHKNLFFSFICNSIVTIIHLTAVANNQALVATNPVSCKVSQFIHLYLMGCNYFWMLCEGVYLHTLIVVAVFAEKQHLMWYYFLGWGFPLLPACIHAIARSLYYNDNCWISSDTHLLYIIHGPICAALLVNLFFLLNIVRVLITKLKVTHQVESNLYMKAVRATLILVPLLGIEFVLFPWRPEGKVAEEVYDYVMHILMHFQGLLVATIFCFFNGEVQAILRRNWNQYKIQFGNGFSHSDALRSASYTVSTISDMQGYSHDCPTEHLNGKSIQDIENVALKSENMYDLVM
T2 sequence (Q9WTJ5 27-148): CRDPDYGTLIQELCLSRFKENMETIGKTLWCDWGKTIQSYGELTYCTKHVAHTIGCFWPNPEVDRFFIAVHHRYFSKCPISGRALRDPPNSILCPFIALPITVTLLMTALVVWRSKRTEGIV

For the compound `C=CCN=C=S` [AITC, allyl isothiocyanate], in [1], the “Swelling of the hindpaw” value was “provoked swelling of the hindpaw of DKO mice to a similar extent as WT mice”; the “Paw oedema (paw volume)” value was “both WT and DKO mice show paw swelling”. In test [2] (1% AITC in saline, WT n=12, DKO n=12), the “Licking behavior, AITC” value is “evoked similar licking behavior to capsaicin that was unaffected by peptide deletion”. Also, in test [3], the Plasma extravasation entry was “both WT and DKO mice show paw swelling and plasma extravasation”.
Consider `[Cl-].[Li+]` [LiCl, lithium chloride], for which the “Conditioned taste aversion (saccharin preference)” value in test [4] was “pr onoun ced; also recorded: strong and indistinguishable conditioned taste aversion in both WT and DKO mice”.
`CCCCC[C@H](O)/C=C/[C@H]1[C@H](O)CC(=O)[C@@H]1C/C=C\CCCC(=O)O` [PGE2, Prostaglandin E2]: in test [1], the “Swelling of the hindpaw” value is “provoked swelling of the hindpaw of DKO mice to a similar extent as WT mice”. In addition, the “WT vs DKO difference in Hargreaves latency after PGE2, post-hoc” value in test [5] (post-hoc Sidak's test, WT n=10, DKO n=10) is recorded as “only the 120 min time-point shows a significant difference (p=0.025)”. In addition, the “Heat and mechanical hypersensitivity, PGE2” value in test [5] (up to 120 min, Hargreaves (n=10 each) and von Frey (n=6 each)) was “short-lasting heat and mechanical hypersensitivity to a similar extent in both WT and DKO mice”.
Take `CC(=O)O` [acetic acid]: the Writhing behavior result in test [6] was “comparable writhing behavior in both WT and DKO mice”.
As to `CC(C)=O` [acetone], the “Cold response evoked by acetone” value in test [7] is on record as “the same between groups”.
For `COc1cc(CNC(=O)CCCC/C=C/C(C)C)ccc1O` [capsaicin], the “Swelling of the hindpaw” value in test [1] was “provoked swelling of the hindpaw of DKO mice to a similar extent as WT mice”. Moreover, the “Paw oedema (paw volume)” value in test [1] is “both WT and DKO mice show paw swelling; also recorded: no appreciable differences in capsaicin-induced swelling between WT and DKO mice”. For the same compound, the “Dorsal horn Fos expression, capsaicin-evoked” value in test [8] was “No differences in dorsal horn Fos expression were observed”. Further, in [2] (0.3% capsaicin, WT n=9, DKO n=8), the “Licking behavior, capsaicin” value was “evoked coping-like licking responses in both genotypes, however responses were variable and although decreased licking was observed in some DKO mice, differences did not reach statistical significance”. The Plasma extravasation result in [3] was “both WT and DKO mice show paw swelling and plasma extravasation; also recorded: plasma extravasation was intact in DKO mice”. The “Substance P-sniffer GCaMP response, DKO DRG” value in test [9] (co-culture with DKO DRG neurons) is “no Substance P-sniffer cell responses”. Also, the results for the “Substance P-sniffer GCaMP response, WT DRG” value in [9] and in test [9] (listed as Capsaicin) were “robust GCaMP responses” and “increase in Substance P-sniffer GCaMP6s fluorescence”, respectively. For the same compound, the “CGRP-sniffer calcium response, WT DRG” value is listed as “strong increases in calcium” in [10] and “increase in CGRP-sniffer GCaMP6s fluorescence” in test [10] (listed as Capsaicin).
Turning to `CCN(CC)CCCC(C)Nc1ccnc2cc(Cl)ccc12` (centres unmarked) [chloroquine], the Scratching entry in test [11] is given as “DKO mice scratched robustly following intradermal chloroquine injection, a response indistinguishable from WT animals”.
Consider `O=C1[O][Pt]2([NH][C@@H]3CCCC[C@H]3[NH]2)[O]C1=O` [oxaliplatin], for which the “Cold allodynia (literature)” value in [12] is listed as “evokes extreme cold allodynia”. Further, the “Cold allodynia, pain-like behaviors” value in test [13] is “pronounced pain-like behaviors”.
